From ChEMBL document CHEMBL6115029, “Discovery of Daraxonrasib (RMC-6236), a Potent and Orally Bioavailable RAS(ON) Multi-selective, Noncovalent Tri-complex Inhibitor for the Treatment of Patients with Multiple RAS-Addicted Cancers” (J Med Chem, 2025)
In brackets after ≈: the same amount, converted by molar mass. Activity calls are given as the source filed them. The calls are words filed in the database; no cut-off is given here.

Tests used:
[1] = Inhibition of 6His-tagged KRAS G12D mutant(1 to 169 residues)/GST-tagged GMPPNP-bound BRAF RBD (155 to 229 reisudes)/Cyclophilin A (unknown origin) tri-complex protein-protein interaction incubated for 3 hrs by TR-FERT based disruption assay; design: species or system Homo sapiens
[2] = Inhibition of 6His-tagged KRAS G12C mutant(1 to 169 residues)/GST-tagged GMPPNP-bound BRAF RBD (155 to 229 reisudes)/Cyclophilin A (unknown origin) tri-complex protein-protein interaction incubated for 3 hrs by TR-FERT based disruption assay; design: species or system Homo sapiens
NCI-H358 = experiment: Cytotoxicity against human NCI-H358 cells harboring KRAS G12C mutant cultured as 2D cells assessed as reduction in cell viability incubated for 120 hrs by CellTiter-Glo luminescence assay; type: functional, cell-based; details: NCI-H358, 120 h
NCI-H1975 = experiment: Cytotoxicity against human NCI-H1975 cells harboring wildtype KRAS cultured as 2D cells assessed as reduction in cell viability incubated for 120 hrs by CellTiter-Glo luminescence assay; type: functional, cell-based; details: NCI-H1975, 120 h
[3] = Inhibition of ERK1/2 phosphorylation in human NCI-H358 cells harboring KRAS G12C mutant incubated for 4 hrs by AlphaLISA assay; type: cell-based; details: NCI-H358, 4 h
[4] = Inhibition of ERK1/2 phosphorylation in human ASPC1 cells harboring KRAS G12D mutant incubated for 4 hrs by AlphaLISA assay; type: cell-based; details: ASPC1, 4 h
[5] = Metabolic stability in mouse liver microsomes assessed as half-life at 2 uM measured upto 60 mins in presence of NADPH by LC-MS/MS analysis; type: ADME, Microsome
A-375 = experiment: Cytotoxicity against human A-375 cells assessed as reduction in cell viability incubated for 120 hrs by CellTiter-Glo luminescence assay; type: functional, cell-based; details: A-375, 120 h
[6] = Kinetic solubility of compound in PBS at pH 7.4 measured after 5 hrs by UV analysis; type: physicochemical; details: read-out: Kinetic_solubility
[7] = Apparent permeability across apical to basolateral side in human Caco-2 cells at 5 uM incubated for 2 hrs by LC-MS/MS analysis; type: ADME, cell-based
[8] = Half-life in female BALB/c mouse at 1 mg/kg, iv measured after 24 hrs by LC-MS/MS analysis; type: ADME, organism-based; details: in vivo
[9] = Clearance in female BALB/c mouse plasma at 1 mg/kg, iv measured after 24 hrs by LC-MS/MS analysis; type: ADME, organism-based
[10] = Volume of distribution at steady state in male Sprague-Dawley rat at 1 mg/kg, iv measured after 24 hrs by LC-MS/MS analysis; type: ADME, organism-based; details: in vivo, read-out: Vdss
[11] = Tmax in female BALB/c mouse at 10 mg/kg, po measured after 24 hrs by LC-MS/MS analysis; type: ADME, organism-based; details: in vivo
[12] = Tmax in male Sprague-Dawley rat at 60 mg/kg, po measured after 24 hrs by LC-MS/MS analysis; type: ADME, organism-based; details: in vivo
[13] = Oral bioavailability in male Sprague-Dawley rat at 60 mg/kg measured after 24 hrs by LC-MS/MS analysis; type: ADME, organism-based; details: in vivo
[14] = Clearance in male Beagle dog at 1 mg/kg, iv measured after 24 hrs by LC-MS/MS analysis; type: ADME, organism-based, Canis lupus familiaris; details: in vivo
[15] = Volume of distribution at steady state in male Beagle dog at 1 mg/kg, iv measured after 24 hrs by LC-MS/MS analysis; type: ADME, organism-based, Canis lupus familiaris; details: in vivo, read-out: Vdss
[16] = Half-life in male Beagle dog at 1 mg/kg, iv measured after 24 hrs by LC-MS/MS analysis; type: ADME, organism-based, Canis lupus familiaris; details: in vivo
[17] = Tmax in male Beagle dog at 5 mg/kg, po measured after 24 hrs by LC-MS/MS analysis; type: ADME, organism-based, Canis lupus familiaris; details: in vivo
[18] = Clearance in male cynomolgus monkey at 1 mg/kg, iv measured after 24 hrs by LC-MS/MS analysis; type: ADME, organism-based, Macaca fascicularis; details: in vivo
[19] = Volume of distribution at steady state in male cynomolgus monkey at 1 mg/kg, iv measured after 24 hrs by LC-MS/MS analysis; type: ADME, organism-based, Macaca fascicularis; details: in vivo, read-out: Vdss
[20] = Tmax in male cynomolgus monkey at 10 mg/kg, po measured after 24 hrs by LC-MS/MS analysis; type: ADME, organism-based, Macaca fascicularis; details: in vivo
[21] = Half-life in male cynomolgus monkey at 10 mg/kg, po measured after 24 hrs by LC-MS/MS analysis; type: ADME, organism-based, Macaca fascicularis; details: in vivo
Hs766T = experiment: Inhibition of ERK1/2 phosphorylation in human Hs766T cells harboring […] mutant incubated for 4 hrs by AlphaLISA assay; type: cell-based
Hs 766 = experiment: Cytotoxicity against human Hs766T cells harboring KRAS Q61H mutant cultured as 2D cells assessed as inhibition of cell proliferation incubated for 120 hrs by CellTiter-Glo luminescence assay; type: functional, cell-based
SK-MEL-30 = experiment: Cytotoxicity against human SK-MEL-30 cells harboring […] mutant cultured as 2D cells assessed as inhibition of cell proliferation incubated for 120 hrs by CellTiter-Glo luminescence assay; type: functional, cell-based
[22] = In vivo inhibition of MAPK signaling pathway in female BALB/c nude mouse xenografted with human MIA PaCa-2 cells harboring KRAS G12C/G12C mutant assessed as reduction in DUSP6 mRNA level in tumor at 3 mg/kg, po administered as single dose and measured after 8 hrs by qPCR analysis relative to control; type: functional
HPAF-II [23] = experiment: Antitumor activity against human HPAF-II cells harboring wildtype KRAS/KRAS G12D mutant xenografted in female BALB/c mouse model assessed as reduction in tumor volume administered orally as once daily dose for 28 days; type: functional, cell-based; details: dose 3-25 mg/kg, route po, time 28.0 day
[24] = Toxicity in female BALB/c nude mouse xenografted with human NCI-H441 cells harboring wildtype KRAS/KRAS G12V mutant assessed as effect on body weight at 25 mg/kg, po administered once daily for 28 days; type: organism-based; details: in vivo, 672 h, time 28 day
MIA PaCa-2 = experiment: Antitumor activity against human MIA PaCa-2 cells harboring KRAS G12C/G12C mutant xenografted in female BALB/c mouse model assessed as tumor regression at 25 mg/kg, po administered once daily for 28 days; type: functional, organism-based; details: time 28.0 day
HPAF-II [25] = experiment: Antitumor activity against human HPAF-II cells harboring wildtype KRAS/KRAS G12D mutant xenografted in female BALB/c mouse model assessed as tumor regression at 25 mg/kg, po administered once daily for 28 days; type: functional, organism-based; details: time 28.0 day
NCI-H1373 = experiment: Antitumor activity against human NCI-H1373 cells harboring KRAS G12C/KRAS G12C mutant xenografted in female BALB/c nude mouse assessed as tumor regression at 25 mg/kg, po administered once daily for 28 days; type: functional, organism-based; details: time 28.0 day
[26] = molecular target: Voltage-gated inwardly rectifying potassium channel KCNH2 (Homo sapiens, UniProt Q12809); experiment: Inhibition of human ERG; type: toxicity
[27] = molecular target: Voltage-dependent L-type calcium channel subunit alpha-1C (Homo sapiens, UniProt Q13936); experiment: Inhibition of human Cav1.2; type: toxicity
[28] = Genotoxicity in Salmonella typhimurium by Ames test; type: toxicity; details: salmonella enterica subsp. enterica serovar typhimurium
[29] = Toxicity in human PBL cells in presence of rat S9 fraction by micronucleus assay; type: subcellular

Sequence of Voltage-gated inwardly rectifying potassium channel KCNH2 (Q12809 whole entry): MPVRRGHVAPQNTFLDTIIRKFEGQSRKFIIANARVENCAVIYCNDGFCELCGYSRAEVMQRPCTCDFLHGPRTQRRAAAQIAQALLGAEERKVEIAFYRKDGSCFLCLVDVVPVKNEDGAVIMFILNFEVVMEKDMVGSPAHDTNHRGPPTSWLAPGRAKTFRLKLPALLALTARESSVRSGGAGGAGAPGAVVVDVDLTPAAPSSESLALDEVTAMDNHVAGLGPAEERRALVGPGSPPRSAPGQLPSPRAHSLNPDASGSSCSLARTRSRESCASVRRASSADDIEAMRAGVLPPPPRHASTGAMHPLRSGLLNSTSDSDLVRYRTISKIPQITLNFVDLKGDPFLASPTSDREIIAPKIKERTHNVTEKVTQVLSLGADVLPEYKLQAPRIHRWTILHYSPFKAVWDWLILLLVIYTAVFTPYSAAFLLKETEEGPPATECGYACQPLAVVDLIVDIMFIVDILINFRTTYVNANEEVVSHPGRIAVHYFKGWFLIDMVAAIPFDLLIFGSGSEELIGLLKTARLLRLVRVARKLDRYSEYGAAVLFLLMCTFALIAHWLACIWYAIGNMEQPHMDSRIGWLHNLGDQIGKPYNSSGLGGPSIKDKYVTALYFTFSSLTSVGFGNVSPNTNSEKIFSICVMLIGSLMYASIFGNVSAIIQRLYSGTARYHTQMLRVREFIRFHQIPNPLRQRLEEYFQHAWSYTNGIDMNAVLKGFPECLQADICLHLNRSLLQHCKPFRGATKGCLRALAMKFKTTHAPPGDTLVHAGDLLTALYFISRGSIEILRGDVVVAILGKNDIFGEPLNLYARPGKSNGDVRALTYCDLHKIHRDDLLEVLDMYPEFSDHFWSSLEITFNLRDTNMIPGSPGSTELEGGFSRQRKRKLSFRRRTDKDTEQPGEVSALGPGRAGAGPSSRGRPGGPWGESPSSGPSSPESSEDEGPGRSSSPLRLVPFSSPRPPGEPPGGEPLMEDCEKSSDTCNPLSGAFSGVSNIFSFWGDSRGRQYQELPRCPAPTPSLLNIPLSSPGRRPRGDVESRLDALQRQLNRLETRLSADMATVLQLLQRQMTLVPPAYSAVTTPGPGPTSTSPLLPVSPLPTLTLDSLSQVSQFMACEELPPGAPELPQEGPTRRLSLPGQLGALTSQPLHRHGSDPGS
Sequence of Voltage-dependent L-type calcium channel subunit alpha-1C (Q13936 whole entry): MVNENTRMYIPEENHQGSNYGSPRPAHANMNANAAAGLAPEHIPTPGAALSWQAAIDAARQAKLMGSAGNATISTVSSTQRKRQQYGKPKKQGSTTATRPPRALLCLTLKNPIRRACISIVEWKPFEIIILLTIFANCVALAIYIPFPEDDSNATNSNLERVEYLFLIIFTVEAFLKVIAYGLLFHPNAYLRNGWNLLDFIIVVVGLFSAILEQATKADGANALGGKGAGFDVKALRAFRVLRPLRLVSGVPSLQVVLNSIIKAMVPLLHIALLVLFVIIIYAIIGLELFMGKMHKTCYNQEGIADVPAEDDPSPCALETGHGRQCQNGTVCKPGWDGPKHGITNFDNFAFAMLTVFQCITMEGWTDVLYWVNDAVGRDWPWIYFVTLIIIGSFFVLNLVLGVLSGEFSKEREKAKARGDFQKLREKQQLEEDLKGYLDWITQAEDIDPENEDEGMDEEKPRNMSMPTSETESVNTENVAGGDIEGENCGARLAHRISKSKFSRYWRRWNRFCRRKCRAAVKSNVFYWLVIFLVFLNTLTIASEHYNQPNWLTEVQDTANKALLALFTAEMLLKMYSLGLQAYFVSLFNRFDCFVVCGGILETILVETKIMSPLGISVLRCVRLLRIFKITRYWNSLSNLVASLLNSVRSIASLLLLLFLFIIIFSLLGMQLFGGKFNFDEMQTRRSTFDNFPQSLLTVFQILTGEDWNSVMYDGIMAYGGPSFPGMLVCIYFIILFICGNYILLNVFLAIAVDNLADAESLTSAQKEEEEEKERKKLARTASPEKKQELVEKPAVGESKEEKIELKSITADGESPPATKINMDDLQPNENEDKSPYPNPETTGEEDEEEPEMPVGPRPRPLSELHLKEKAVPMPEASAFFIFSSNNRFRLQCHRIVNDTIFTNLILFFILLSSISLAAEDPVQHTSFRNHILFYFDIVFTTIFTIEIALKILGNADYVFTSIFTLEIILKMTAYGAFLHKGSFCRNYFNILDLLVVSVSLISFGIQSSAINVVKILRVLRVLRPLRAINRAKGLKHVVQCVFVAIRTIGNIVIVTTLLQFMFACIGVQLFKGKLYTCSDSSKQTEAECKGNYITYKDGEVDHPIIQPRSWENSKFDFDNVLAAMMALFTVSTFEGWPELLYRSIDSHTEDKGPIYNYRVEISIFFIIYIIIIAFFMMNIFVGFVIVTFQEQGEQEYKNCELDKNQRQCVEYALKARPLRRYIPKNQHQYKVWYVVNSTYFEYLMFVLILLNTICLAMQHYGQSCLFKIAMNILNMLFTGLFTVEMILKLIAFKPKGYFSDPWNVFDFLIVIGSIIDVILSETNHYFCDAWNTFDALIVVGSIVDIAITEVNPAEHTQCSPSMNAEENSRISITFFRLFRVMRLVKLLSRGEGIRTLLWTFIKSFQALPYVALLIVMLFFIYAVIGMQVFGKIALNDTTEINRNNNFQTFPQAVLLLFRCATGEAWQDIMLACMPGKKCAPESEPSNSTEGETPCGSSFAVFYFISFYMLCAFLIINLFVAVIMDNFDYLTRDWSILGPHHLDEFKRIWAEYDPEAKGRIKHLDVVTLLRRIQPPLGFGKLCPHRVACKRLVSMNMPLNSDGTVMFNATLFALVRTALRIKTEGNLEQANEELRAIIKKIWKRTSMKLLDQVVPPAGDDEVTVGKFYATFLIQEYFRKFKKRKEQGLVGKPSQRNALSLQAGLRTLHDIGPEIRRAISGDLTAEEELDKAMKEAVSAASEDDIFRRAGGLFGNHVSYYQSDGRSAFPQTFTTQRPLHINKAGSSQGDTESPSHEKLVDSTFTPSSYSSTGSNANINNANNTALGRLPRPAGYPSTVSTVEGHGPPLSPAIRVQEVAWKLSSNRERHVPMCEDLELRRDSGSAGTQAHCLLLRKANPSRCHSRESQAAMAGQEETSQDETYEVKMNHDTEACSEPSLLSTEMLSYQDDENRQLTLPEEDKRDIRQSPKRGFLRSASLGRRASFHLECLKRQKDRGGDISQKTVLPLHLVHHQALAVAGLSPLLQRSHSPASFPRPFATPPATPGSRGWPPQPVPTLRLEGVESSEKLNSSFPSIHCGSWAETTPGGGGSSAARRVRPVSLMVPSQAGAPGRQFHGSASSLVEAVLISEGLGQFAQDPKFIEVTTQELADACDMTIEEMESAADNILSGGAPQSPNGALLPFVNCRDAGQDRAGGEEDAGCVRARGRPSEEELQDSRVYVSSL

SMILES: CCn1c(-c2cc(N3CCN(C)CC3)cnc2[C@H](C)OC)c2c3cc(ccc31)-c1csc(n1)C[C@H](NC(=O)[C@H]1C[C@@H]1C)C(=O)N1CCC[C@H](N1)C(=O)OCC(C)(C)C2
- IC50 [1]: 229 nM
- IC50 [2]: 35 nM
- EC50 (NCI-H358): 1 nM
- EC50 (NCI-H1975): 1.4 nM
- EC50 [3]: 1.6 nM
- EC50 [4]: 3.6 nM
- half-life at 2 µM [5]: 68 min
- EC50 (A-375): 7.21 µM
- solubility kinetic at 5 h [6]: 71 µM (≈ 57.6 µg/mL)
- Papp A→B at 2 h, 5 µM [7]: 0.4 ×10⁻⁶ cm/s
- half-life [8]: 132 min
- clearance [9]: 40 mL/min/kg
- Vd [10]: 1.9 L/kg
- Tmax [11]: 1.7 h
- Tmax [12]: 4 h
- bioavailability [13]: 27%
- clearance [14]: 6.67 mL/min/kg
- Vd [15]: 2.1 L/kg
- half-life [16]: 366 min
- Tmax [17]: 42 min
- clearance [18]: 8.33 mL/min/kg
- Vd [19]: 2.9 L/kg
- Tmax [20]: 3.7 h
- half-life [21]: 276 min
- inhibition (Hs766T): Active
- Activity (Hs 766): Active
- Activity (SK-MEL-30): Active
- inhibition in vivo at 3 mg/kg [22]: 93%
- Activity (HPAF-II [23]): Dose-dependent-effect
- Activity [24]: Non-toxic
- Activity (MIA PaCa-2): Active
- Activity (HPAF-II [25]): Active
- Activity (NCI-H1373): Active
- IC50 [26]: 8.9 µM
- IC50 [27]: > 30 µM
- Activity [28]: Non-toxic
- Activity [29]: Non-toxic
